Data: patent US20130202698A1 (NANJING SANHOME PHARMACEUTICAL CO., LTD., priority 2005, published 2013)

Columns and labels:
[1] = Phase II clinical trial, oral tablets, departments of stomatology, adverse events; type: in vivo, human; settings: human phase II, oral, stomatology
Description: (§1) Double-blinded randomized controlled trials were carried out to compare the adverse events of oral levo-ornidazole with racemate treatment groups. Two separate studies were conducted for patients with infections from either department of stomatology or obstetrics/gynecology.

[2] = Phase II clinical trial, oral tablets, departments of obstetrics/gynecology, adverse events; type: in vivo, human; settings: human phase II, oral, obstetrics/gynecology
Description: as §1

## Cc1ncc([N+](=O)[O-])n1CC(O)CCl (racemic) [Racemic ornidazole, 1-(3-Chloro-2-hydroxypropyl)-2-methyl-5-nitroimidazole]
[1]
  Bloating, # of Patients with AE: 1
  Bloating, Incidence (%): 0.71%
  Constipation, # of Patients with AE: 0
  Constipation, Incidence (%): 0.00%
  Drowsy, # of Patients with AE: 3
  Drowsy, Incidence (%): 2.13%
  Dry mouth, # of Patients with AE: 1
  Dry mouth, Incidence (%): 0.71%
  Headache, # of Patients with AE: 1
  Headache, Incidence (%): 0.71%
  Hypersomnia, # of Patients with AE: 6
  Hypersomnia, Incidence (%): 4.26%
  Hypodynamia, # of Patients with AE: 1
  Hypodynamia, Incidence (%): 0.71%
  Loss of appetite, # of Patients with AE: 1
  Loss of appetite, Incidence (%): 0.71%
  Nausea, # of Patients with AE: 4
  Nausea, Incidence (%): 2.84%
  Palpitation, # of Patients with AE: 1
  Palpitation, Incidence (%): 0.71%
  Pruritus, # of Patients with AE: 1
  Pruritus, Incidence (%): 0.71%
  Rash, # of Patients with AE: 2
  Rash, Incidence (%): 1.42%
  Sourregurgitation, # of Patients with AE: 1
  Sourregurgitation, Incidence (%): 0.71%
  Stomach discomfort, # of Patients with AE: 7
  Stomach discomfort, Incidence (%): 4.96%
  Stupor, # of Patients with AE: 1
  Stupor, Incidence (%): 0.71%
  Total incidence rate of adverse events: 17.73%
  Vertigo, # of Patients with AE: 2
  Vertigo, Incidence (%): 1.42%
  Vomiting, # of Patients with AE: 1
  Vomiting, Incidence (%): 0.71%
[1]; out of 139 (levo) / 141 (racemate) patients
  Patients with adverse events (total): 25 patients
[2]
  Abdominal pain, # of Patients with AE: 1
  Abdominal pain, Incidence (%): 0.70%
  Appetite drop, # of Patients with AE: 2
  Appetite drop, Incidence (%): 1.41%
  Bitter taste, # of Patients with AE: 1
  Bitter taste, Incidence (%): 0.70%
  Bloating, # of Patients with AE: 3
  Bloating, Incidence (%): 2.11%
  Blurred vision, # of Patients with AE: 1
  Blurred vision, Incidence (%): 0.70%
  Breast tenderness, # of Patients with AE: 1
  Breast tenderness, Incidence (%): 0.70%
  Chest tightness, # of Patients with AE: 2
  Chest tightness, Incidence (%): 1.41%
  Dazzle, # of Patients with AE: 1
  Dazzle, Incidence (%): 0.70%
  Diarrhea, # of Patients with AE: 1
  Diarrhea, Incidence (%): 0.70%
  Dizziness, # of Patients with AE: 4
  Dizziness, Incidence (%): 2.82%
  Dry mouth, # of Patients with AE: 1
  Dry mouth, Incidence (%): 0.70%
  Headache, # of Patients with AE: 1
  Headache, Incidence (%): 0.70%
  Hypersomnia, # of Patients with AE: 8
  Hypersomnia, Incidence (%): 5.63%
  Hypodynamia, # of Patients with AE: 2
  Hypodynamia, Incidence (%): 1.41%
  Nausea, # of Patients with AE: 7
  Nausea, Incidence (%): 4.93%
  Oral malodor, # of Patients with AE: 0
  Oral malodor, Incidence (%): 0.00%
  Rash, # of Patients with AE: 0
  Rash, Incidence (%): 0.00%
  Stomach ache, # of Patients with AE: 0
  Stomach ache, Incidence (%): 0.00%
  Stomach discomfort, # of Patients with AE: 4
  Stomach discomfort, Incidence (%): 2.82%
  Total incidence rate of adverse events: 19.72%
  Vertigo, # of Patients with AE: 8
  Vertigo, Incidence (%): 5.63%
  Vomiting, # of Patients with AE: 1
  Vomiting, Incidence (%): 0.70%
[2]; out of 143 (levo) / 142 (racemate) patients
  Patients with adverse events (total): 28 patients
